Tests used:
hypertensive rats = conditions: Wu et al., 2001, Yeh et al., 2010; cited from earlier work
MMP-9 [1] = experiment: MMP-9 protein expression in TGF-β-stimulated human cardiac fibroblasts (HCFs); type: cell-based
Experimental: (§1) Human cardiac fibroblasts (HCFs; catalogue number: 306-05f) are purchased from Cell Applications Inc. (San Diego, Calif., USA). The cells are cultured as monolayer in Dulbecco's modified Eagle's medium containing 10% fetal bovine serum at 37° C. in 95% humidity and 5% CO2. Cells are harvested at passage 3-6 for experiment. Before treatment, HCFs are washed twice with serum-free medium and switched to serum-free medium for 24 h. To stimulate MMP-9 expression, the cultures are treated with 10 ng·mL^−1 transforming growth factor-b (TGF-β) for 24 h. HCFs are pretreated with KMUP-3 (10 mmol·L^−1) or in combination with L-NAME (100 mmol·L^−1) for 1 h before addition of 10 ng·mL^−1 TGF-β for 24 h. Each experiment is repeated three times.
(§2) The hearts are sonicated in 50 mmol·L^−1 Tris for 10 s two times and centrifuged at 13,000 rpm at 4° C. for 30 min. The protein concentration of the supernatants is determined by using bovine serum albumin as the standard. The cell extracts are boiled in ratio of 4:1 with sample buffer (100 mmol·L^−1 Tris, pH 6.8, 20% glycerol, 4% SDS, and 0.2% bromophenol blue). Electrophoresis is performed using 10% SDS-polyacrylamide gel electrophoresis and transferred to nitrocellulose membranes (Millipore Corporation, Billerica, Mass., USA). […] The intensity of the bands is quantified by densitometry.

[2] = system: endothelial nitric oxide synthase (eNOS); conditions: Wu et al., 2005; Lin et al., 2006; cited from earlier work
eNOS = experiment: Western blot of eNOS protein expression in rat hearts; type: in vivo; conditions: Western blot densitometry, versus MI group, FIG. 5c
phosphodiesterase = conditions: Wu et al., 2005; Lin et al., 2006; cited from earlier work
MI rats [3] = experiment: Cardiac structure and haemodynamics in rats after myocardial infarction (LAD ligation), LV catheter; type: in vivo, rat
Description: Male rats (250-300 g) are provided by the National Laboratory Animal Breeding and Research Center (Taipei, Taiwan) and housed under constant temperature and controlled illumination. Food and water are available ad libitum. MI is induced by ligation of the left anterior descending (LAD) coronary artery according to Liang et al., 2006. […] The LAD is ligated with 6.0 silk at 2 mm from the origin, and the wound is closed with primary suture. After the operation, the animals are observed until fully conscious. Sham animals undergo similar thoracotomy and pericardiotomy, except that the ligature around the coronary artery is not tied. All the animals are administered with s.c. doses of analgesia (ketoprofen; 3 mg·kg^−1) and antibiotics (gentamicin; 0.7 mg·kg^−1) for 2 days. This study was approved by the Animal Care and Use Committee at Kaohsiung Medical University. Surviving rats are fitted with ALZET osmotic minipumps (Model 2ML4, DURECT Corporation, Cupertino, Calif., USA) immediately after recovery. At this time, most of the rats are still anaesthetized from the previously administered pentobarbital sodium; a further bolus dose of pentobarbital sodium (15 mg·kg^−1) is given if necessary. […] In the treatment group, the minimumps are filled with hydrochloride of KMUP-3 (KMUP-3·HCl; 0.3 mg·kg^−1·day^−1). In the sham and MI groups, the minipumps are filled with saline. After echocardiography, a PE-50 catheter is inserted through the right carotid artery to measure the LV systolic pressure (LVSP), LV end-diastolic pressure (LVEDP) and maximum rates of pressure development (LV+dP/dt) and relaxation (LV−dP/dt). […] The hearts are then excised and the atria and right ventricles are dissected out. Sections of the LV are embedded in mounting medium and the remaining tissues are transferred in the liquid nitrogen for further evaluation. Throughout the whole procedure, a further bolus dose of pentobarbital sodium (15 mg·kg^−1) is given if required.

TIMP-1 [4] = experiment: Western blot of TIMP-1 protein expression in rat hearts; type: in vivo; conditions: Western blot densitometry, n=9-10, FIG. 5b
aortic smooth muscle = conditions: through opening a KATP channel and increasing eNOS; attenuated by glibenclamide; Wu et al., 2005; Lin et al., 2006; cited from earlier work
MI rats [5] = experiment: Cardiac fibrosis by Masson's trichrome staining in MI rats; type: in vivo, rat
Description: (§3) MI is induced by ligation of the left anterior descending (LAD) coronary artery according to Liang et al., 2006. […] The LAD is ligated with 6.0 silk at 2 mm from the origin, and the wound is closed with primary suture. After the operation, the animals are observed until fully conscious. Sham animals undergo similar thoracotomy and pericardiotomy, except that the ligature around the coronary artery is not tied. Surviving rats are fitted with ALZET osmotic minipumps (Model 2ML4, DURECT Corporation, Cupertino, Calif., USA) immediately after recovery. At this time, most of the rats are still anaesthetized from the previously administered pentobarbital sodium; a further bolus dose of pentobarbital sodium (15 mg·kg^-1) is given if necessary. […] In the treatment group, the minimumps are filled with hydrochloride of KMUP-3 (KMUP-3·HCl; 0.3 mg·kg^-1·day^-1). In the sham and MI groups, the minipumps are filled with saline. Histological analyses are performed to all of the heart. Rats are randomly chosen to be analyzed for area of risk after coronary artery ligature by Evan blue staining as described by Harada et al. (2005). […] Ten sections in each heart are analyzed for the percentage of fibrosis. […] The total LV and infarct area and fibrosis region are measured by an investigator without knowledge of the treatment group using US NIH ImageJ, 1.42q.

MI rats [6] = experiment: Area of risk (Evans blue) and infarct size (TTC staining) in MI rats; type: in vivo, rat
Description: as §3

MMP-9 [7] = experiment: Western blot of MMP-9 protein expression in rat hearts; type: in vivo; conditions: Western blot densitometry, n=9-10, FIG. 5a
MI rats [8] = experiment: Echocardiography 4 weeks post-surgery in MI rats (LVEDD, LVESD, fractional shortening); type: in vivo, rat; conditions: KMUP-3 for 4 weeks, FIG. 2
Description: MI is induced by ligation of the left anterior descending (LAD) coronary artery according to Liang et al., 2006. […] The LAD is ligated with 6.0 silk at 2 mm from the origin, and the wound is closed with primary suture. After the operation, the animals are observed until fully conscious. Sham animals undergo similar thoracotomy and pericardiotomy, except that the ligature around the coronary artery is not tied. Surviving rats are fitted with ALZET osmotic minipumps (Model 2ML4, DURECT Corporation, Cupertino, Calif., USA) immediately after recovery. At this time, most of the rats are still anaesthetized from the previously administered pentobarbital sodium; a further bolus dose of pentobarbital sodium (15 mg·kg^−1) is given if necessary. […] In the treatment group, the minimumps are filled with hydrochloride of KMUP-3 (KMUP-3·HCl; 0.3 mg·kg^−1·day^−1). In the sham and MI groups, the minipumps are filled with saline.

TIMP-1 [9] = experiment: TIMP-1 protein expression in TGF-β-stimulated human cardiac fibroblasts (HCFs); type: cell-based; conditions: KMUP-3 10 mmol·L−1, TGF-β 10 ng·mL−1, FIG. 6b
Experimental: as §1, §2

[10] = KMUP-3·HCl 0.3 mg·kg−1·day−1 by osmotic minipump, 4 weeks, n=10

For `Cn1c(=O)c2c(ncn2CCN2CCN(c3ccccc3Cl)CC2)n(C)c1=O` [KMUP-1, 7-[2-[4-(2-chlorobenzene)piperazinyl]ethyl]-1,3-dimethylxanthine], the “Cardioprotection, cardiac hypertrophy and fibrosis, in words” value (hypertensive rats) is listed as “therapeutic effect on the cardioprotection in hypertensive rats, the reducing of the cardiac hypertrophy and fibrosis”.
With `COC(=O)[C@@H](N)CCCNC(=N)N[N+](=O)[O-]` [L-NAME, N^ω-nitro-L-arginine methyl ester, reference compound] the “Effect of eNOS inhibitor pretreatment on KMUP-3 inhibition of MMP-9 expression in HCFs” value (MMP-9 [1]; L-NAME 100 mmol·L−1 with KMUP-3 10 mmol·L−1, TGF-β 10 ng·mL−1, FIG. 6a) was “reverses the inhibition of MMP-9 expression”.
In the case of `Cn1c(=O)c2c(ncn2CCN2CCN(c3ccc([N+](=O)[O-])cc3)CC2)n(C)c1=O` [KMUP-3, 7-[2-[4-(4-nitrobenzene)-piperazinyl]ethyl]-1,3-dimethylxanthine], the “eNOS in HUVECs, in words” value [2] is given as “enhance endothelial nitric oxide synthase (eNOS)”, the “eNOS expression in MI rat hearts” value (eNOS) is given as “increases significantly” and the “Phosphodiesterase inhibitor potency, in words” value (phosphodiesterase) is given as “more potent than KMUP-1”. The “Cardiac systolic function (LV+dP/dt), in words” value (MI rats [3]; 0.3 mg·kg−1·day−1 for 4 weeks) was “improved cardiac systolic function”, the “Cardiac remodelling (hypertrophy, heart weight to body weight ratio), in words” value (MI rats [3]; KMUP-3 treatment 4 weeks) was “prevents the cardiac remodelling process” and the “HR (heart rate)” value (MI rats [3]; [10]) was 421 ± 5 bpm. For the same compound, the “HW (heart weight)” value (MI rats [3]; [10]) was 1219 ± 39 mg, the HW/BW (MI rats [3]; [10]) was 2.72 ± 0.04 mg/g and the “LV +dP/dt” value (MI rats [3]; [10]) was 7637 ± 333 mmHg/s. The “LV −dP/dt” value (MI rats [3]; [10]) was −5379 ± 441 mmHg/s, the LVEDP (MI rats [3]; [10]) was 12.6 ± 2.3 mmHg and the LVSP (MI rats [3]; [10]) was 140.6 ± 4.2 mmHg. For the same compound, the “Heart rate change, in words” value (MI rats [3]; after KMUP-3 treatment, not statistically significant) was “small increase in heart rate”, the “MMP-9 expression in HCFs” value (MMP-9 [1]; KMUP-3 10 mmol·L−1, 1 h before TGF-β 10 ng·mL−1 for 24 h, FIG. 6a) was “attenuates the expression of MMP-9” and the “TIMP-1 expression in MI rat hearts” value (TIMP-1 [4]) was “increases significantly”. The “Aortic smooth muscle relaxation, in words” value (aortic smooth muscle) was “may induce aortic smooth muscle relaxation”, the “Cardiac fibrosis in central-infarct and peri-infarct areas” value (MI rats [5]; n=10, FIG. 4a-b) was “attenuates cardiac fibrosis” and the “Percentage of fibrosis in non-infarcted area” value (MI rats [5]; n=10, FIG. 4c) was “comparable with that of the sham-operated hearts”. The “Area of risk after coronary artery ligature” value (MI rats [6]; Evans blue staining, n=5, FIG. 3a) was “no difference between treatment groups”, the “Infarction size (infarct area of LV)” value (MI rats [6]; TTC staining, MI rats after KMUP-3 treatment, n=10, MI group 47.4±3.7%, P<0.05) was 33.6±1.7% and the “MMP-9 expression in MI rat hearts” value (MMP-9 [7]) was “decreases MMP-9 expression”. For the same compound, the “Cardiac remodeling and dysfunction by echocardiography (LVEDD, LVESD, FS), in words” value (MI rats [8]) was “cardiac remodeling and dysfunction may be prevented” and the “TIMP-1 expression in HCFs” value (TIMP-1 [9]) was “significantly enhanced”.
